Results as given in PubChem BioAssay AID248 (DTP/NCI, 2004).
Where “and” joins values, the source holds several entries; their conditions need not be identical. Identical values can stand only once. Toxic doses and inconclusive results are not listed. Cut-off read from the data, not from the text of the source: active = T/C of 150% or more; inactive = T/C below 125%.

System: L1210 leukemia ip in BDF1 mice, survival T/C
Assay: NCI In Vivo Anticancer Drug Screen. Data for tumor model L1210 Leukemia (intraperitoneal) in B6D2F1 (BDF1) mice
Settings: endpoint: mean survival time, higher = longer survival
Procedure, shortened: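 Mice bearing the transplanted tumor received compound or vehicle. Survival of the treated group was divided by that of the vehicle-treated control group to give the ratio.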

[1] = dose: 100.0 mg/kg/injection, schedule: Q04DX002 (ip), vehicle: Klucel (hydroxypropylcellulose) (HPC)
[2] = dose: 200.0 mg/kg/injection, schedule: Q04DX002 (ip), vehicle: Klucel (hydroxypropylcellulose) (HPC)
[3] = dose: 400.0 mg/kg/injection, schedule: Q04DX002 (ip), vehicle: Klucel (hydroxypropylcellulose) (HPC)
[4] = dose: 100.0 mg/kg/injection, schedule: Q01DX009 (ip), vehicle: Klucel (hydroxypropylcellulose) (HPC)
[5] = dose: 100.0 mg/kg/injection, schedule: Q04DX003 (ip), vehicle: Klucel (hydroxypropylcellulose) (HPC)
[6] = dose: 200.0 mg/kg/injection, schedule: Q01DX009 (ip), vehicle: Klucel (hydroxypropylcellulose) (HPC)
[7] = dose: 200.0 mg/kg/injection, schedule: Q04DX003 (ip), vehicle: Klucel (hydroxypropylcellulose) (HPC)
[8] = dose: 400.0 mg/kg/injection, schedule: Q04DX003 (ip), vehicle: Klucel (hydroxypropylcellulose) (HPC)
[9] = dose: 100.0 mg/kg/injection, schedule: Q01DX001 (ip), vehicle: saline with Tween-80
[10] = dose: 200.0 mg/kg/injection, schedule: Q01DX001 (ip), vehicle: saline with Tween-80
[11] = dose: 25.0 mg/kg/injection, schedule: Q01DX009 (ip), vehicle: saline
[12] = dose: 50.0 mg/kg/injection, schedule: Q01DX009 (ip), vehicle: saline
[13] = dose: 100.0 mg/kg/injection, schedule: Q01DX009 (ip), vehicle: saline
[14] = dose: 12.5 mg/kg/injection, schedule: Q01DX009 (ip), vehicle: saline with Tween-80
[15] = dose: 25.0 mg/kg/injection, schedule: Q01DX009 (ip), vehicle: saline with Tween-80
[16] = dose: 50.0 mg/kg/injection, schedule: Q01DX009 (ip), vehicle: saline with Tween-80
[17] = dose: 100.0 mg/kg/injection, schedule: Q04DX003 (ip), vehicle: saline with Tween-80
[18] = dose: 25.0 mg/kg/injection, schedule: Q04DX003 (ip), vehicle: saline
[19] = dose: 100.0 mg/kg/injection, schedule: Q04DX003 (ip), vehicle: saline
[20] = dose: 200.0 mg/kg/injection, schedule: Q04DX003 (ip), vehicle: saline
[21] = dose: 400.0 mg/kg/injection, schedule: Q04DX003 (ip), vehicle: saline
[22] = dose: 200.0 mg/kg/injection, schedule: Q01DX009 (ip), vehicle: saline
[23] = dose: 50.0 mg/kg/injection, schedule: Q01DX009 (ip), vehicle: Klucel (hydroxypropylcellulose) (HPC)
[24] = dose: 200.0 mg/kg/injection, schedule: Q04DX003 (ip), vehicle: saline with Tween-80
[25] = dose: 400.0 mg/kg/injection, schedule: Q04DX003 (ip), vehicle: saline with Tween-80

Measured: T/C

CCOc1c[n+](C)c(/C=C/c2ccccc2)s1
inactive: dose: 5.0 mg/kg/injection, schedule: Q01DX001 (ip), vehicle: carboxymethylcellulose (CMC) 108 % of control | dose: 10.0 mg/kg/injection, schedule: Q01DX001 (ip), vehicle: carboxymethylcellulose (CMC) 97 % of control | dose: 20.0 mg/kg/injection, schedule: Q01DX001 (ip), vehicle: carboxymethylcellulose (CMC) 94 % of control | dose: 40.0 mg/kg/injection, schedule: Q01DX001 (ip), vehicle: carboxymethylcellulose (CMC) 103 % of control

CC(=O)Oc1cc(C(C)=O)c(O)c2ccccc12
inactive: dose: 100.0 mg/kg/injection, schedule: Q01DX001 (ip), vehicle: water 95 % of control | dose: 200.0 mg/kg/injection, schedule: Q01DX001 (ip), vehicle: water 93 % of control

CC1=C2[C@H]3OC(=O)[C@@H](C)[C@@H]3CC[C@@]2(C)C=C/C1=N\O
inactive: dose: 100.0 mg/kg/injection, schedule: Q01DX001 (ip), vehicle: saline 101 % of control | dose: 200.0 mg/kg/injection, schedule: Q01DX001 (ip), vehicle: saline 98 % of control

O=C(NC(=S)Nc1ccc([N+](=O)[O-])cc1Cl)c1ccccc1F
inactive: [1] 91 % of control | [2] 105 % of control | [3] 105 % of control

COc1ccc(C(C(N)=O)N2CCCCC2)cc1 (stereo not drawn)
inactive: [4] 95 % of control | [5] 107 % of control | [6] 88 % of control | [7] 94 % of control | dose: 400.0 mg/kg/injection, schedule: Q01DX009 (ip), vehicle: Klucel (hydroxypropylcellulose) (HPC) 91 % of control | [8] 102 % of control

Sc1cc(Cl)c(Cl)cc1Cl
inactive: [9] 97 % of control | [10] 90 % of control

COc1ccc(C(SCC(N)C(=O)O)(c2ccccc2)c2ccccc2)cc1 (stereo not drawn)
active: [11] 166 % of control | [12] 183 % of control
inactive: dose: 7.4 mg/kg/injection, schedule: Q01DX009 (ip), vehicle: saline 122 % of control | [13] 100 % of control

O=C1NC2C(NC(=O)N2Cl)N1Cl (stereo not drawn)
inactive: [14] 97 % of control | [15] 100 % of control | dose: 25.0 mg/kg/injection, schedule: Q04DX003 (ip), vehicle: saline with Tween-80 94 % of control | dose: 40.0 mg/kg/injection, schedule: Q01DX Z (ip), vehicle: carboxymethylcellulose (CMC) 92 % of control | [16] 94 % of control | dose: 50.0 mg/kg/injection, schedule: Q04DX003 (ip), vehicle: saline with Tween-80 95 % of control | dose: 100.0 mg/kg/injection, schedule: Q01DX009 (ip), vehicle: saline with Tween-80 94 % of control | [17] 105 % of control

CC1CCCCC1C(=O)N1CCCCCC1 (stereo not drawn)
inactive: dose: 100.0 mg/kg/injection, schedule: Q04DX002 (ip), vehicle: saline 108 % of control | dose: 200.0 mg/kg/injection, schedule: Q04DX002 (ip), vehicle: saline 99 % of control | dose: 400.0 mg/kg/injection, schedule: Q04DX002 (ip), vehicle: saline 108 % of control

CCOC(=O)c1cc(N/N=C2/CCCNC2=O)c[nH]1
inactive: dose: 100.0 mg/kg/injection, schedule: Q01DX001 (ip), vehicle: carboxymethylcellulose (CMC) 99 % of control | dose: 200.0 mg/kg/injection, schedule: Q01DX001 (ip), vehicle: carboxymethylcellulose (CMC) 103 % of control | dose: 400.0 mg/kg/injection, schedule: Q01DX001 (ip), vehicle: carboxymethylcellulose (CMC) 94 % of control

CC(=O)NCC[N+](C)(C)C
inactive: [11] 100 % of control | [18] 97 % of control | [12] 100 % of control | dose: 50.0 mg/kg/injection, schedule: Q04DX003 (ip), vehicle: saline 95 % of control | [13] 105 % of control | [19] 95 % of control

CC(=O)/C=C/c1ccccc1
inactive: dose: 100.0 mg/kg/injection, schedule: Q01DX001 (ip), vehicle: gum acacia 91 % of control | dose: 200.0 mg/kg/injection, schedule: Q01DX001 (ip), vehicle: gum acacia 105 % of control | dose: 400.0 mg/kg/injection, schedule: Q01DX001 (ip), vehicle: gum acacia 97 % of control

O=[N+]([O-])c1ccc2c(c1)C(Br)c1ccccc1-2 (stereo not drawn)
inactive: [4] 89 % of control | [5] 95 % of control | [6] 94 % of control | [7] 92 % of control | [8] 94 % of control

C=CC[n+]1cccc(S(=O)(=O)[O-])c1
inactive: [19] 101 % of control | [20] 98 % of control | [21] 103 % of control

CN(C)C(=O)Nc1ccc(Cl)cc1
inactive: [13] 91 % of control | [19] 93 % of control | [22] 100 % of control | [20] 98 % of control | [21] 101 % of control

CN(C)Cc1ccccc1COC(=O)c1cccc(Br)c1
inactive: [1] 98 % of control | [2] 102 % of control

O=C(O)CCc1nc2ccccc2c(=O)[nH]1
inactive: [23] 100 % of control | [4] 100 % of control | [6] 100 % of control

Cc1ccc(NC(=O)OCCN(C)C)cc1NC(=O)OCCN(C)C
inactive: dose: 12.5 mg/kg/injection, schedule: Q01DX009 (ip), vehicle: saline 98 % of control and 97 % of control | [11] 98 % of control | [12] 101 % of control and 92 % of control | [13] 102 % of control

COc1ccc(NC(=S)Nc2ccc(-c3ccc(NC(=S)Nc4ccc(OC)cc4)cc3)cc2)cc1
inactive: [1] 87 % of control | [2] 87 % of control

NCCNC(=O)c1ccccc1
inactive: [13] 94 % of control | [22] 100 % of control

CCCCCCC(=O)N1CCCC(C)C1 (stereo not drawn)
inactive: [1] 98 % of control | [2] 106 % of control

O=C(O)NNC(=O)NO
inactive: [9] 94 % of control | [10] 94 % of control | dose: 400.0 mg/kg/injection, schedule: Q01DX001 (ip), vehicle: saline with Tween-80 92 % of control

Cc1cc([N+](=O)[O-])ccc1N=O
inactive: [14] 101 % of control | [15] 102 % of control | [16] 98 % of control | [17] 98 % of control | [24] 100 % of control | [25] 100 % of control

COc1cc(NS(C)(=O)=O)ccc1Nc1c2ccccc2nc2cc(C(F)(F)F)c(N)cc12
inactive: [23] 113 % of control and 123 % of control | dose: 50.0 mg/kg/injection, schedule: Q04DX003 (ip), vehicle: Klucel (hydroxypropylcellulose) (HPC) 118 % of control | [5] 123 % of control | [8] 112 % of control
active: [6] 153 % of control and 174 % of control | [2] 162 % of control | [3] 179 % of control

N=C(N)c1ccc(Oc2ccc(-c3cc4ccc(C(=N)N)cc4[nH]3)cc2)cc1
inactive: dose: 1.56 mg/kg/injection, schedule: Q01DX009 (ip), vehicle: saline with Tween-80 90 % of control | dose: 3.12 mg/kg/injection, schedule: Q01DX009 (ip), vehicle: saline with Tween-80 106 % of control | dose: 6.25 mg/kg/injection, schedule: Q04DX003 (ip), vehicle: saline 100 % of control (2×) and 112 % of control | [14] 119 % of control | dose: 12.5 mg/kg/injection, schedule: Q04DX003 (ip), vehicle: saline 112 % of control and 120 % of control and 122 % of control | [18] 112 % of control

Nc1c(Cl)ncnc1Nc1ccc([N+](=O)[O-])cc1
inactive: dose: 100.0 mg/kg/injection, schedule: Q01DX001 (ip), vehicle: Klucel (hydroxypropylcellulose) (HPC) 89 % of control | dose: 200.0 mg/kg/injection, schedule: Q01DX001 (ip), vehicle: Klucel (hydroxypropylcellulose) (HPC) 94 % of control | dose: 400.0 mg/kg/injection, schedule: Q01DX001 (ip), vehicle: Klucel (hydroxypropylcellulose) (HPC) 92 % of control

O=C(O)c1cccc(Br)c1
inactive: [1] 102 % of control | [2] 98 % of control | [3] 102 % of control

CC(=O)NC1Cc2cc(C)cc(C)c21 (stereo not drawn)
inactive: dose: 50.0 mg/kg/injection, schedule: Q04DX002 (ip), vehicle: Klucel (hydroxypropylcellulose) (HPC) 105 % of control | [1] 102 % of control | [2] 98 % of control

COc1ccc(NC(=O)C2C3C=CC(C3)C2C(=O)Nc2ccc(OC)cc2)cc1 (stereo not drawn)
inactive: [17] 100 % of control | [24] 87 % of control | [25] 91 % of control
